System: progenitor endothelial cells (PECs)
Experiment: trial PEC isolation, plating on coated plates
Format: cell-based, human
Conditions: fibronectin-coated versus gelatin-coated plates
Excerpt: PEC Isolations To establish the protocol for isolating the progenitor endothelial cells (PECs) from peripheral blood, blood from healthy, normal donors was used. A literature review generated multiple PEC isolation protocols (J.C.I. (2000) 105:71-77; Circ. (2003) 107:143-149; Circ. (2003) 107:1164-1169; Plast. Reconstruc. Surgr. (2004) 113:284; and Am. J. Physiol. Heart Circ. Physiol. (2004) 286:H1985-H1993). […] The flow chart in FIG. 2 presents a modified protocol followed in isolation of PECs.
Cells were isolated from ˜120 milliliters of peripheral blood and then single aliquots of cells were plated in Endothelial Basal Medium and 5% FBS (Cambrex). The media was changed every 4-5 days. The total cell number obtained from the isolations was donor-dependent and ranged from 40 million to 200 million cells.

For fibronectin, the “attachment and growth of isolated cells on coated plates” value was “attach and grow better on fibronectin-coated plates than on gelatin-coated plates”.

Source: patent US8163269B2, “Bioactive stents for type II diabetics and methods for use thereof” (priority 2004, dated 2012)
